In patent US20020086278A1, “CHROMOGENIC MEDIA CONTAINING BLOOD OR HEMIN” (priority 1999, published 2002):
Like-named read-outs stand apart in the source and are kept apart here.

What was measured:
[1] = tested on: Gardnerella vaginalis 14019; experiment: Example 1: growth and colony color on plates surface-spread with chromogen; type: cell-based; details: Substrate on Choclate II Agar; G. vag. 14019
[2] = tested on: Streptococcus agalactiae (stag); experiment: Example 3: colony color on chromogenic TSA II with 5% sheep blood (chromogen in medium); type: cell-based
[3] = tested on: Klebsiella pneumoniae (klpn); experiment: as above; type: cell-based; details: for Colony Color: CO2
[4] = tested on: Staphylococcus Coag Neg (step); experiment: as above; type: cell-based; details: for Colony Color on Various Chromogenic TSA II with 5% Sheep Blood: 18 h; for Colony Color: 21 h
[5] = Precipitate of chromogen on pre-plated media; type: physicochemical; details: After 1 week
Experimental: 50 μl of each chromogen solution was added to the surface of each of the following pre-plated media (one chromogen solution per plate):
The solution was dispersed using a spreader and allowed to dry 3-4 hours in a hood.

[6] = tested on: Pseudomonas aeruginosa (psae); experiment: Example 3: colony color on chromogenic TSA II with 5% sheep blood (chromogen in medium); type: cell-based; details: CO2
S. milleri (stmi) = experiment: as above; type: cell-based; details: for Colony Color: stmi 6249, 21 h
S. agalactiae 12386 = experiment: Example 2: effect of incubation conditions on colony color formation; type: cell-based, Streptococcus agalactiae; details: 0.004 g/plate, 24 h, CO2
S. pneumoniae (stpn) = experiment: Example 3: colony color on chromogenic TSA II with 5% sheep blood (chromogen in medium); type: cell-based; details: for Colony Color on Various Chromogenic TSA II with 5% Sheep Blood: 18 h
[7] = tested on: Branhamella catarrhalis 25238; experiment: Example 1: growth and colony color on plates surface-spread with chromogen; type: cell-based; details: TSA Plain; B. catt 25258
[8] = tested on: Entercoccus faecalis (enfa); experiment: Example 3: colony color on chromogenic TSA II with 5% sheep blood (chromogen in medium); type: cell-based; details: for Colony Color: CO2
S pyogenes (stpy) = experiment: as above; type: cell-based; details: for Colony Color on Various Chromogenic TSA II with 5% Sheep Blood: 18 h
cakr 34135 = experiment: as above; type: cell-based
Salmonella spp. (sasp) = type: cell-based; details: for Colony Color: CO2
Candida albicans (caal) = experiment: Example 3: colony color on chromogenic TSA II with 5% sheep blood (chromogen in medium); type: cell-based; details: for Colony Color: caal 10231
N. gonorrhoeae 35201 = experiment: Example 1: growth and colony color on plates surface-spread with chromogen; type: cell-based; details: Substrate on Choclate II Agar; N. gono. 35201
[9] = tested on: Serratia marcescens (sema); experiment: Example 3: colony color on chromogenic TSA II with 5% sheep blood (chromogen in medium); type: cell-based; details: for Colony Color: sema 13880, CO2
E. faecium (enfu) = experiment: as above; type: cell-based
milu 9341 = experiment: as above; type: cell-based
Group B Strep. 12386 = experiment: Example 1: growth and colony color on plates surface-spread with chromogen; type: cell-based; details: for Color: Group B Strep 12386
[10] = tested on: Branhamella catarrhalis (brca); experiment: Example 3: colony color on chromogenic TSA II with 5% sheep blood (chromogen in medium); type: cell-based; details: for Colony Color: CO2
[11] = tested on: Aeromonas hydrophilia (aehy); experiment: as above; type: cell-based; details: CO2
[12] = tested on: Streptococcus pneumoniae 6303; experiment: Example 1: growth and colony color on plates surface-spread with chromogen; type: cell-based; details: TSA Plain; S. pneu: 6303
[13] = chromogenic TSA II with 5% Sheep Blood, 0.1 g/l, 3 strains tested
[14] = chromogenic TSA II with 5% Sheep Blood, 0.1 g/l, 2 strains tested
[15] = chromogenic TSA II with 5% Sheep Blood, 0.1 g/l, 1 strain tested

OC[C@H]1O[C@@H](Oc2c[nH]c3ccc(Br)c(Cl)c23)[C@H](O)[C@@H](O)[C@@H]1O [X-Glucoside, 5-Br-4-Cl-3-indolyl-β-D-glucopyranoside]
Growth [1]: <
Colony hemolytic activity ([2]; Group B Strep on X-glucoside TSA II): slightly reduced
Colony Color ([2]; Group B Strep, 3 of 3 strains, X-glucoside TSA II): blue
Colony Color (Summary) [2, 13]: +
CAMP test ([2]; on X-glucoside TSA II): works well
Colony Color ([2]; stag 4768, air, 21 h): lb
Colony Color (Summary) [3, 13]: +
Colony Color ([3]; klpn 13883, 21 h): gb
Colony Color ([3]; klpn 33495, 18 h): gb
Colony Color ([3]; klpn 33606, 18 h): gb
Colony Color ([3]; klpn 33606, 21 h): gb
Colony Color (Summary) ([4]; chromogenic TSA II with 5% Sheep Blood, 0.1 g/l, 5 strains tested): 0
Colony Color on Various Chromogenic TSA II with 5% Sheep Blood ([4]; step 12228, CO2): 0
Colony Color ([4]; step 12228, CO2): 0
Colony Color ([4]; step 12228, air): 0
Colony Color on Various Chromogenic TSA II with 5% Sheep Blood ([4]; step cdc1, CO2): 0
Colony Color ([4]; step cdc1, CO2): 0
Colony Color ([4]; step cdc1, air): 0
Colony Color ([4]; step cdc2, CO2): 0
Colony Color ([4]; step cdc2, air): 0
Colony Color ([4]; step cdc3, CO2): 0
Colony Color ([4]; step cdc3, air): 0
Colony Color on Various Chromogenic TSA II with 5% Sheep Blood ([4]; step cdc4, CO2): 0
Colony Color ([4]; step cdc4, CO2): 0
Colony Color ([4]; step cdc4, air): 0
Colony Color on Various Chromogenic TSA II with 5% Sheep Blood ([4]; stha cdc2, CO2): 0
Colony Color on Various Chromogenic TSA II with 5% Sheep Blood ([4]; stsa cdc3, CO2): 0
Precipitate on plates after 1 week [5]: some precipitate was evident
Colony Color ([6]; psae 9027, 18 h): 0
Colony Color ([6]; psae 9027, 21 h): 0
Colony Color ([6]; psae 15442, 18 h): 0
Colony Color ([6]; psae 15442, 21 h): 0
Colony Color ([6]; psae 33607, 18 h): 0
Colony Color ([6]; psae 33607, 21 h): lgb
Colony Color (Summary) (S. milleri (stmi); [14]): 0
Colony Color on Various Chromogenic TSA II with 5% Sheep Blood (S. milleri (stmi); stmi 6242, CO2, 18 h): 0
Colony Color (S. milleri (stmi); CO2): 0
Colony Color (S. milleri (stmi); air): 0
Colony Color (S. agalactiae 12386; Chocolate II Agar): blue (d)
Colony Color (S. agalactiae 12386; TSA II 5% Sheep Blood): blue (d)
Colony Color (S. pneumoniae (stpn); stpn 1259, CO2, 21 h): 0
Colony Color (S. pneumoniae (stpn); stpn 1260, CO2, 21 h): 0
Colony Color (S. pneumoniae (stpn); stpn 1628, CO2, 21 h): 0
Colony Color (S. pneumoniae (stpn); stpn 6303, CO2, 24 h): 0
Colony Color (S. pneumoniae (stpn); stpn 6303, air, 24 h): 0
Colony Color (S. pneumoniae (stpn); stpn 6305, CO2, 24 h): 0
Colony Color (S. pneumoniae (stpn); stpn 6305, air, 24 h): 0
Colony Color on Various Chromogenic TSA II with 5% Sheep Blood (S. pneumoniae (stpn); stpn t259, CO2): 0
Colony Color on Various Chromogenic TSA II with 5% Sheep Blood (S. pneumoniae (stpn); stpn t260, CO2): 0
Colony Color on Various Chromogenic TSA II with 5% Sheep Blood (S. pneumoniae (stpn); stpn t331, CO2): 0
Colony Color on Various Chromogenic TSA II with 5% Sheep Blood (S. pneumoniae (stpn); stpn t628, CO2): bg
Growth [7]: <
Colony Color (Summary) ([8]; chromogenic TSA II with 5% Sheep Blood, 0.1 g/l, 6 strains tested): +
Colony Color ([8]; enfa 597, 18 h): db
Colony Color ([8]; enfa 10741, 18 h): db
Colony Color ([8]; enfa 10741, 21 h): db
Colony Color ([8]; enfa 12953, 18 h): db
Colony Color ([8]; enfa 12953, 21 h): db
Colony Color ([8]; enfa 14506, 18 h): db
Colony Color ([8]; enfa 14506, 21 h): db
Colony Color ([8]; enfa 29212, 18 h): db
Colony Color ([8]; enfa 29212, 21 h): db
Colony Color (S pyogenes (stpy); 4 of 7 S. pyogenes, X-glucoside TSA II): light grey blue
Colony Color (S pyogenes (stpy); stpy 1027, CO2, 21 h): 0
Colony Color (S pyogenes (stpy); stpy 1028, CO2, 21 h): lgb
Colony Color (S pyogenes (stpy); stpy 1029, CO2, 21 h): lgb
Colony Color (S pyogenes (stpy); stpy 1030, CO2, 21 h): gb
Colony Color (S pyogenes (stpy); stpy 19615, CO2, 21 h): gb
Colony Color (S pyogenes (stpy); stpy 19615, air, 21 h): lgb
Colony Color (S pyogenes (stpy); stpy 49117, CO2, 21 h): 0
Colony Color (S pyogenes (stpy); stpy 49117, air, 21 h): 0
Colony Color on Various Chromogenic TSA II with 5% Sheep Blood (S pyogenes (stpy); stpy 51339, CO2): 0
Colony Color (S pyogenes (stpy); stpy 51339, CO2, 21 h): 0
Colony Color (S pyogenes (stpy); stpy 51339, air, 21 h): lgb
Colony Color on Various Chromogenic TSA II with 5% Sheep Blood (S pyogenes (stpy); stpy t027, CO2): 0
Colony Color on Various Chromogenic TSA II with 5% Sheep Blood (S pyogenes (stpy); stpy t028, CO2): 0
Colony Color on Various Chromogenic TSA II with 5% Sheep Blood (S pyogenes (stpy); stpy t029, CO2): 0
Colony Color on Various Chromogenic TSA II with 5% Sheep Blood (S pyogenes (stpy); stpy t030, CO2): lgb
Colony Color (cakr 34135; CO2, 18 h): 0
Colony Color (cakr 34135; CO2, 21 h): 0
Colony Color (Summary) (Salmonella spp. (sasp); [14]): 0
Colony Color (Salmonella spp. (sasp); saty 19430, 18 h): 0
Colony Color (Salmonella spp. (sasp); saty 19430, 21 h): 0
Colony Color (Salmonella spp. (sasp); satym 14028, 18 h): 0
Colony Color (Salmonella spp. (sasp); satym 14028, 21 h): 0
Colony Color (Candida albicans (caal); CO2, 18 h): 0
Colony Color (Candida albicans (caal); CO2, 24 h): 0
Colony Color (Candida albicans (caal); air, 24 h): 0
Colony Color (Summary) (Candida albicans (caal); [14]): 0
Growth (N. gonorrhoeae 35201): <
Colony Color (Summary) [9, 15]: +
Colony Color ([9]; 18 h): bg
Colony Color ([9]; 21 h): gb
Colony Color (Summary) (E. faecium (enfu); [15]): +
Colony Color (E. faecium (enfu); enfu 49032, CO2, 18 h): db
Colony Color (milu 9341; CO2, 18 h): ly
Colony Color (milu 9341; CO2, 21 h): 0
Color (Group B Strep. 12386; Choc II): blue
Substrates Producing Color (Group B Strep. 12386; Summary of Table I, Group B Strep. 12386): X-Glucoside, X-
Color (Group B Strep. 12386; TSA II 5SB): blue
Color (Group B Strep. 12386; TSA Plain): blue
Colony Color ([10]; brca 25238, 18 h): 0
Colony Color ([10]; brca 25238, 21 h): 0
Colony Color ([10]; brca 25240, 18 h): 0
Colony Color ([10]; brca 25240, 21 h): 0
Colony Color (Summary) [10, 14]: 0
Colony Color ([11]; aehy 7965, 18 h): 0
Colony Color ([11]; aehy 7965, 21 h): 0
Colony Color ([11]; aehy 7966, 18 h): 0
Colony Color ([11]; aehy 49847, 18 h): gb
Colony Color ([11]; aehy 49847, 21 h): gb
Growth [12]: <
